Like-named read-outs stand apart in the source and are kept apart here.
Columns and labels:
[1] = target: T1, SFRP-1 (Homo sapiens, UniProt Q8N474); assay: Cell-based assay for in vitro measurement of SFRP-1/SARP2 antagonist activity (U2OS cells co-transfected with 16x TCF-tk-Luciferase reporter, Wnt and hSFRP-1); conditions: for fold induction at 10 µM / fold induction at 15 µM / fold induction at 14 µM: U2OS; for fold induction at 10 µM: read-out: Fold Induction with SFRP-1, U2OS cells, single dose 10 μM, luciferase reporter, fold induction over SFRP-1 control;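 as to all read-outs here: U2OS cells co-transfected with a TCF-tk luciferase reporter, a Wnt vector, hSFRP-1 or empty vector and CMV-βgal, luciferase luminescence read in cell lysates alongside βgal activity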
T1 sequence (Q8N474 32-314): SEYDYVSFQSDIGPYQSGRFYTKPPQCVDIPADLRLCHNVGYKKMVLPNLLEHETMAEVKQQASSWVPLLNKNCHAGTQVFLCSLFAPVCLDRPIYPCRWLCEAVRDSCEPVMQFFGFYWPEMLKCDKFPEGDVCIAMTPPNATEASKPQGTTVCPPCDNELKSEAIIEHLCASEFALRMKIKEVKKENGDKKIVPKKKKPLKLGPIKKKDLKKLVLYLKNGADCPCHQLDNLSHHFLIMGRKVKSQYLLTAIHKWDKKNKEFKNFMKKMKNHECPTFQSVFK

[2] = target: T1, SFRP-1; assay: Fluorescence polarization binding assay (competitive displacement of a probe compound from SFRP-1); conditions: fluorescence anisotropy, 45 nM SFRP-1, 20 nM probe;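 also: test compound competes with a fluorescent probe held by SFRP-1, seen as a drop in probe anisotropy after incubation in darkness, with anisotropy as function of rising compound dose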
[3] = read-out: Fold Induction with SFRP-1, Conc 15 μM, single dose, luciferase reporter, fold induction over SFRP-1 control, cells with SFRP-1
[4] = read-out: Fold Induction without SFRP-1, Conc 15 μM, single dose, luciferase reporter, cells without SFRP-1 (specificity control)
[5] = read-out: Fold Induction with SFRP-1, Conc 15 μM, with SFRP-1, fold induction over SFRP-1 control, single dose
[6] = read-out: Fold Induction without SFRP-1, Conc 15 μM, without SFRP-1, single dose

Row | SMILES | fold induction at 10 µM [1] | IC50 [2] [nM] | EC50 [1] [nM] | further results
1 | CC(C)c1ccc(S(=O)(=O)c2ccccc2)cc1S(=O)(=O)NCC(O)c1cccnc1 (stereo not shown) [Example 735, N-(2-hydroxy-2-pyridin-3-ylethyl)-2-isopropyl-5-(phenylsulfonyl)benzenesulfonamide] | 4.1 | 900 | – | –
2 | CC(C)c1ccc(S(=O)(=O)c2ccc(F)cc2)cc1S(=O)(=O)NC1CCN(C(=O)OC(C)(C)C)CC1 [Example 517, tert-butyl 4-[({5-[(4-fluorophenyl)sulfonyl]-2-isopropylphenyl}sulfonyl)amino]piperidine-1-carboxylate] | – | 1600 | – | fold induction at 15 µM [1, 3]: 2.2; fold induction at 15 µM [1, 4]: 1
3 | CN(CCNS(=O)(=O)c1cc(S(=O)(=O)c2ccccc2)ccc1C(F)(F)F)C(=O)N[C@@H]1CCCNC1 [Example 1022, N-[2-(methyl{[(3R)-piperidin-3-ylamino]carbonyl}amino)ethyl]-5-(phenylsulfonyl)-2-(trifluoromethyl)benzenesulfonamide] | – | 170 | 726 | –
4 | Cc1ccc(S(=O)(=O)c2ccccc2)cc1S(=O)(=O)NC1CCN(C(=O)CC(C)(C)C)CC1 [Example 504, N-[1-(3,3-dimethylbutanoyl)piperidin-4-yl]-2-methyl-5-(phenylsulfonyl)benzenesulfonamide] | – | 4000 | – | fold induction at 15 µM [1, 3]: 2.2; fold induction at 15 µM [1, 4]: 1
5 | CC(C)c1ccc(S(=O)(=O)c2ccc(F)cc2)cc1S(=O)(=O)NC1CCN(C(=O)N(C)C)CC1 [Example 573, 4-[({5-[(4-fluorophenyl)sulfonyl]-2-isopropylphenyl}sulfonyl)amino]-N,N-dimethylpiperidine-1-carboxamide] | – | 600 | – | fold induction at 15 µM [1, 3]: 2.1; fold induction at 15 µM [1, 4]: 1.1
6 | CC(C)c1ccc(S(=O)(=O)c2ccccc2)cc1S(=O)(=O)NCCc1ccccn1 [Example 671, 2-isopropyl-5-(phenylsulfonyl)-N-(2-pyridin-2-ylethyl)benzenesulfonamide] | 3.6 | 400 | 1580 | –
7 | CN(C)C(=O)CN1CCC(NS(=O)(=O)c2cc(S(=O)(=O)c3ccccc3)ccc2C(F)(F)F)CC1 [Example 1085, N,N-dimethyl-2-[4-({[5-(phenylsulfonyl)-2-(trifluoromethyl)phenyl]sulfonyl}amino)piperidin-1-yl]acetamide] | – | 150 | 746 | –
8 | CC(C)c1ccc(S(=O)(=O)c2ccc(N(C)CCC#N)cc2)cc1S(=O)(=O)NCC1CCOCC1 [Example 581, 5-({4-[(2-cyanoethyl)(methyl)amino]phenyl}sulfonyl)-2-isopropyl-N-(tetrahydro-2H-pyran-4-ylmethyl)benzenesulfonamide] | – | 1000 | – | fold induction at 15 µM [1, 3]: 2.2; fold induction at 15 µM [1, 4]: 1.3
9 | CN(CCNS(=O)(=O)c1cc(S(=O)(=O)c2ccccc2)ccc1C(F)(F)F)C(=O)N1CCNCC1 [Example 898, N-methyl-N-[2-({[5-(phenylsulfonyl)-2-(trifluoromethyl)phenyl]sulfonyl}amino)ethyl]piperazine-1-carboxamide] | 3.1 | 1000 | 1930 | –
10 | CC[C@H](C)C(CO)Nc1ccc(S(=O)(=O)c2ccc(C(C)C)c(S(=O)(=O)NCCn3ccnc3)c2)cc1 (stereo partly drawn) [Example 453, 5-[(4-{[(2S)-1-(hydroxymethyl)-2-methylbutyl]amino}phenyl)sulfonyl]-N-[2-(1H-imidazol-1-yl)ethyl]-2-isopropylbenzenesulfonamide] | – | 300 | – | fold induction at 15 µM [1, 5]: 4; fold induction at 15 µM [1, 6]: 1.1
11 | CN(CCNS(=O)(=O)c1cc(S(=O)(=O)c2ccccc2)ccc1C(F)(F)F)C(=O)N1CCCC1 [Example 833, N-methyl-N-[2-({[5-(phenylsulfonyl)-2-(trifluoromethyl)phenyl]sulfonyl}amino)ethyl]pyrrolidine-1-carboxamide] | 3.4 | 400 | 1260 | –
12 | CN(CCNS(=O)(=O)c1cc(S(=O)(=O)c2ccccc2)ccc1C(F)(F)F)CC(=O)OC(C)(C)C [Example 962, tert-butyl N-methyl-N-[2-({[5-(phenylsulfonyl)-2-(trifluoromethyl)phenyl]sulfonyl}amino)ethyl]glycinate] | 2.7 | 3000 | 2860 | –
13 | COC(=O)C1CCC(NS(=O)(=O)c2cc(S(=O)(=O)c3ccccc3)ccc2C(F)(F)F)CC1 (stereo not shown) [Example 946, methyl 4-({[5-(phenylsulfonyl)-2-(trifluoromethyl)phenyl]sulfonyl}amino)cyclohexanecarboxylate] | 3 | 500 | 1460 | –
14 | Nc1ccc(CNS(=O)(=O)c2cc(S(=O)(=O)c3ccccc3)ccc2C(F)(F)F)cc1 [Example 942, N-(4-aminobenzyl)-5-(phenylsulfonyl)-2-(trifluoromethyl)benzenesulfonamide] | 3.8 | 190 | 209 | –
15 | Cc1ccc(S(=O)(=O)c2ccccc2)cc1S(=O)(=O)NC1CCN(C(=O)c2ccno2)CC1 [Example 485, N-[1-(isoxazol-5-ylcarbonyl)piperidin-4-yl]-2-methyl-5-(phenylsulfonyl)benzenesulfonamide] | – | 1700 | – | fold induction at 15 µM [1, 3]: 2.5; fold induction at 15 µM [1, 4]: 1
16 | CNc1ccc(S(=O)(=O)c2ccc(C(C)C)c(S(=O)(=O)NC3CCNCC3)c2)cc1 [Example 568, 2-isopropyl-5-{[4-(methylamino)phenyl]sulfonyl}-N-piperidin-4-ylbenzenesulfonamide] | – | 500 | – | fold induction at 15 µM [1, 3]: 3.8; fold induction at 15 µM [1, 4]: 1.1
17 | Cc1ccc(S(=O)(=O)c2ccc(F)cc2)cc1S(=O)(=O)NCCCn1ccnc1 [Example 177, 5-[(4-fluorophenyl)sulfonyl]-N-[3-(1H-imidazol-1-yl)propyl]-2-methylbenzenesulfonamide] | – | 2900 | – | fold induction at 14 µM ([1]; read-out: Fold Induction with SFRP-1, Conc 14 μM, with SFRP-1, fold induction over SFRP-1 control, single dose): 2.9; fold induction at 15 µM [1, 5]: 3.6; fold induction at 14 µM ([1]; read-out: Fold Induction without SFRP-1, Conc 14 μM, without SFRP-1, single dose): 1; fold induction at 15 µM [1, 6]: 1
18 | O=S(=O)(NCCc1cccnc1)c1cc(S(=O)(=O)c2ccccc2)ccc1OC(F)(F)F [Example 660, 5-(phenylsulfonyl)-N-(2-pyridin-3-ylethyl)-2-(trifluoromethoxy)benzenesulfonamide] | 4.9 | 2400 | 3720 | –
19 | CC(C)c1ccc(S(=O)(=O)c2ccc(F)cc2)cc1S(=O)(=O)NC1CCN(C(=S)Nc2ccccc2F)CC1 [Example 691, N-(2-fluorophenyl)-4-[({5-[(4-fluorophenyl)sulfonyl]-2-isopropylphenyl}sulfonyl)amino]piperidine-1-carbothioamide] | 2.8 | 1000 | 8600 | –
20 | O=S(=O)(NC1CCOCC1)c1cc(S(=O)(=O)c2cccc(O)c2)ccc1C(F)(F)F [Example 744, 5-[(3-hydroxyphenyl)sulfonyl]-N-(tetrahydro-2H-pyran-4-yl)-2-(trifluoromethyl)benzenesulfonamide] | 3.1 | 200 | 852 | –
21 | CC(C)c1ccc(S(=O)(=O)c2ccc(F)cc2)cc1S(=O)(=O)NCC1CCOCC1 [Example 445, 5-[(4-fluorophenyl)sulfonyl]-2-isopropyl-N-(tetrahydro-2H-pyran-4-ylmethyl)benzenesulfonamide] | – | 1100 | – | fold induction at 15 µM [1, 5]: 2.9; fold induction at 15 µM [1, 6]: 1.2
22 | CC(C)c1ccc(S(=O)(=O)c2ccc(F)cc2)cc1S(=O)(=O)NCCCn1ccnc1 [Example 319, 5-[(4-fluorophenyl)sulfonyl]-N-[3-(1H-imidazol-1-yl)propyl]-2-isopropylbenzenesulfonamide] | – | 600 | – | fold induction at 15 µM [1, 5]: 3.5; fold induction at 15 µM [1, 6]: 1.1
23 | C[S+]([O-])CCC(=O)N1CCC(NS(=O)(=O)c2cc(S(=O)(=O)c3ccccc3)ccc2C(F)(F)F)CC1 (stereo not shown) [Example 1054, N-{1-[3-(methylsulfinyl)propanoyl]piperidin-4-yl}-5-(phenylsulfonyl)-2-(trifluoromethyl)benzenesulfonamide] | – | 40 | 717 | –
24 | CNc1ccc(S(=O)(=O)c2ccc(C(C)C)c(S(=O)(=O)NC3CCN(C(=O)OC(C)(C)C)CC3)c2)cc1 [Example 528, tert-butyl 4-{[(2-isopropyl-5-{[4-(methylamino)phenyl]sulfonyl}phenyl)sulfonyl]amino}piperidine-1-carboxylate] | – | 300 | – | fold induction at 15 µM [1, 3]: 2.5; fold induction at 15 µM [1, 4]: 1.1
25 | CC(C)(C)c1ccc(C(=O)N2CCC(NS(=O)(=O)c3cc(S(=O)(=O)c4ccccc4)ccc3C(F)(F)F)CC2)cc1 [Example 718, N-[1-(4-tert-butylbenzoyl)piperidin-4-yl]-5-(phenylsulfonyl)-2-(trifluoromethyl)benzenesulfonamide] | 6.7 | 400 | 214 | –
